According to ChEMBL document CHEMBL1649119, “Daptomycin pharmacokinetics in adult oncology patients with neutropenic fever” (Antimicrob Agents Chemother, 2009):

Columns and labels:
[1] = AUC (0 to tau) in healthy human subjects at 6 mg/kg, iv administered as 30 mins infusion every 24 hrs measured on days 1-3; format: ADME, organism-based; design: dose 6 mg/kg, route intravenous; details: plasma
[2] = Unbound fraction in healthy human plasma at 4 mg/kg, iv administered as 30 mins infusion every 24 hrs measured on day 1; format: ADME, organism-based; design: dose 4 mg/kg, route intravenous
[3] = Half life in healthy human at 6 mg/kg, iv administered as 30 mins infusion every 24 hrs measured on day 7; format: ADME, organism-based; design: dose 6 mg/kg, route intravenous; details: in vivo
[4] = AUC (0 to infinity) in old healthy human at 4 mg/kg, iv administered as single dose 30 mins infusion; format: ADME, organism-based; design: dose 4 mg/kg, route intravenous, time infinity; details: plasma
Homo sapiens [5] = experiment: Clearance in healthy human at 4 mg/kg, iv administered as single dose 30 mins infusion; format: ADME, organism-based; design: dose 4 mg/kg, route intravenous; details: in vivo, 0.5 h
[6] = Plasma concentration in old healthy human at 4 mg/kg, iv administered as single dose 30 mins infusion measured after 24 hrs; format: ADME, organism-based; design: dose 4 mg/kg, route intravenous
[7] = AUC (0 to infinity) in healthy human subjects at 10 mg/kg, iv administered as 30 mins infusion every 24 hrs measured on day 4; format: ADME, organism-based; design: time infinity, dose 10 mg/kg, route intravenous; details: plasma
[8] = AUC (0 to infinity) in healthy human subjects at 6 mg/kg, iv administered as 30 mins infusion every 24 hrs measured on day 4; format: ADME, organism-based; design: time infinity, dose 6 mg/kg, route intravenous; details: plasma
[9] = Cmax in adult human subjects at 6 mg/kg, iv administered as single dose 30 mins infusion; format: ADME, organism-based; design: dose 6 mg/kg, route intravenous; details: in vivo
[10] = Volume of distribution at steady state in adult human subjects at 6 mg/kg, iv administered as single dose 30 mins infusion; format: ADME, organism-based; design: dose 6 mg/kg, route intravenous; details: in vivo, read-out: Vdss
Homo sapiens [11] = experiment: Unbound clearance in healthy human at 8 mg/kg, iv administered as 30 mins infusion every 24 hrs measured on day 7; format: ADME, organism-based; design: dose 8 mg/kg, route intravenous; details: in vivo
[12] = Clearance in morbidly obese human at 4 mg/kg, iv administered as single dose 30 mins infusion; format: ADME, organism-based; design: dose 4 mg/kg, route intravenous; details: in vivo
[13] = Unbound fraction in healthy human plasma at 6 mg/kg, iv administered as 30 mins infusion every 24 hrs measured on day 1; format: ADME, organism-based; design: dose 6 mg/kg, route intravenous
[14] = Half life in adult human with hepatic impairment at 6 mg/kg, iv administered as single dose 30 mins infusion; format: ADME, organism-based; design: dose 6 mg/kg, route intravenous; details: in vivo
[15] = Clearance in nonobese human subjects at 4 mg/kg, iv administered as single dose 30 mins infusion; format: ADME, organism-based; design: dose 4 mg/kg, route intravenous; details: in vivo
[16] = AUC (0 to infinity) in healthy human at 8 mg/kg, iv administered as 30 mins infusion every 24 hrs measured on day 1; format: ADME, organism-based; design: time infinity, dose 8 mg/kg, route intravenous; details: plasma
[17] = Cmax in nonobese human at 4 mg/kg, iv administered as single dose 30 mins infusion; format: ADME, organism-based; design: dose 4 mg/kg, route intravenous; details: in vivo
[18] = AUC (0 to infinity) in healthy human at 8 mg/kg, iv administered as 30 mins infusion every 24 hrs measured on day 7; format: ADME, organism-based; design: dose 8 mg/kg, route intravenous, time infinity; details: plasma
[19] = Renal clearance in moderately obese adult human at 4 mg/kg, iv administered as single dose 30 mins infusion; format: ADME, organism-based, Kidney; design: dose 4 mg/kg, route intravenous; details: in vivo, read-out: CL_renal (converted)
[20] = Apparent volume of distribution during terminal phase in healthy human at 4 mg/kg, iv administered as 30 mins infusion every 24 hrs measured on day 7; format: ADME, organism-based; design: dose 4 mg/kg, route intravenous; details: in vivo
[21] = Cmax in healthy human subjects at 10 mg/kg, iv administered as 30 mins infusion every 24 hrs measured on day 14; format: ADME, organism-based; design: dose 10 mg/kg, route intravenous; details: in vivo
[22] = Clearance in adult human with hepatic impairment at 6 mg/kg, iv administered as single dose 30 mins infusion; format: ADME, organism-based, Liver; design: dose 6 mg/kg, route intravenous; details: in vivo
[23] = Cmax in healthy human at 8 mg/kg, iv administered as 30 mins infusion every 24 hrs measured on day 14; format: ADME, organism-based; design: dose 8 mg/kg, route intravenous; details: in vivo
[24] = Half life in healthy human at 6 mg/kg, iv administered as 30 mins infusion every 24 hrs measured on day 1; format: ADME, organism-based; design: dose 6 mg/kg, route intravenous; details: in vivo
Homo sapiens [25] = experiment: Unbound clearance in healthy human at 6 mg/kg, iv administered as 30 mins infusion every 24 hrs measured on day 7; format: ADME, organism-based; design: dose 6 mg/kg, route intravenous; details: in vivo

Compound `CCCCCCCCCC(=O)N[C@@H](Cc1c[nH]c2ccccc12)C(=O)N[C@H](CC(N)=O)C(=O)N[C@@H](CC(=O)O)C(=O)N[C@@H]1C(=O)NCC(=O)N[C@@H](CCCN)C(=O)N[C@@H](CC(=O)O)C(=O)N[C@H](C)C(=O)N[C@@H](CC(=O)O)C(=O)NCC(=O)N[C@H](CO)C(=O)N[C@@H]([C@H](C)CC(=O)O)C(=O)N[C@@H](CC(=O)c2ccccc2N)C(=O)O[C@@H]1C` has an AUC tau [1] of 645 µg·h/mL, a fraction unbound at 1 day [2] of 0.08 and a half-life [3] of 8.9 h. It also gave an AUC(0-inf) [4] of 474 µg·h/mL, a CL (Homo sapiens [5]) of 9.84 mL/min and a concentration at 24 h [6] of 6.38 µg/mL. For the same compound, the AUC(0-inf) [7] was 1040 µg·h/mL, the AUC(0-inf) [8] was 632 µg·h/mL and the Cmax [9] was 118 µg/mL. The Vd [10] was 0.08 L/kg, the CL (Homo sapiens [11]) was 0.682 mL/min/kg and the clearance [12] was 0.118 mL/min/kg. For the same compound, the fraction unbound at 1 day [13] was 0.07, the half-life [14] was 8.97 h and the clearance [15] was 0.2 mL/min/kg. It also gave an AUC(0-inf) [16] of 1130 µg·h/mL, a Cmax [17] of 53.2 µg/mL and an AUC(0-inf) [18] of 1130 µg·h/mL. For the same compound, the CL renal at 0.5 h [19] was 0.156 mL/min/kg, the Vd [20] was 0.096 L/kg and the Cmax [21] was 139 µg/mL. For the same compound, the clearance [22] was 0.118 mL/min/kg, the Cmax [23] was 130 µg/mL and the half-life [24] was 7.8 h. For the same compound, the CL (Homo sapiens [25]) was 0.997 mL/min/kg.
